Assay results reported in patent US11214594B2, “Antimicrobial peptide having synergistic antibacterial effect with antibiotics on multidrug resistant bacteria, and use thereof” (priority 2016, dated 2022).
In brackets after ≈: the same amount, converted by molar mass. Where a SMILES comes first, the peptide text is derived from it. [ ]: non-standard residue; d: D form.

Columns and labels:
MDRAB 12036 = format: cell-based, Acinetobacter baumannii
Summary of the method: (§1)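 Broth microdilution in MH medium: bacterial strains diluted to 2×10^6 CFU were mixed with equal volumes of peptide serially diluted twofold in MH medium.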

S. typhimurium = assay: microbe, parasite or virus in culture; format: cell-based, Salmonella typhimurium
Summary of the method: as §1

MDREC 1238 = format: cell-based, Escherichia coli
Summary of the method: as §1

MDRAB 12035 [1] = assay: MIC of antibiotic during combined treatment with antimicrobial peptide; format: cell-based, Acinetobacter baumannii
Summary of the method: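 Broth microdilution in MH medium; strains were diluted to 2×10^6 CFU per ml before plating. Peptide was serially diluted stepwise at 2:1 starting from its MIC, and MH-diluted antibiotic was then added to determine MIC. The reversed arrangement was also tested.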

MDRST 8007 = assay: Minimal inhibitory concentration (MIC), single agent; format: cell-based, Salmonella typhimurium; details: agent alone
Summary of the method: as §1

MRSA 3114 = format: cell-based, Staphylococcus aureus; details: 3114
Summary of the method: as §1

MRSA 3126 = format: cell-based, Staphylococcus aureus; details: 3126
Summary of the method: as §1

A. baumannii = assay: microbe, parasite or virus in culture; format: cell-based, Acinetobacter baumannii; details: for Antibacterial activity relative to PapMA-1: A. baumannii and S. typhimurium
Summary of the method: as §1

MDRAB 12035 [2] = assay: microbe, parasite or virus in culture; format: cell-based, Acinetobacter baumannii
Summary of the method: as §1

MDRPA 2003 = format: cell-based, Pseudomonas aeruginosa
Summary of the method: as §1

MDRPA 2002 = format: cell-based, Pseudomonas aeruginosa
Summary of the method: as §1

S. aureus = assay: microbe, parasite or virus in culture; format: cell-based, Staphylococcus aureus
Summary of the method: as §1

[3] = tested on: multi-drug resistant bacteria; assay: MIC, summary statements for multi-drug resistant bacteria; format: cell-based
Experimental: For the antibacterial activity, a minimal inhibitory concentration (MIC) of a peptide in which fungus bodies were not split in an MH medium with sufficient nutrients was measured.
Specifically, the strains described in the following [Table 2] were purchased and diluted with an MH medium such that the number of bacteria was 2×10^6 colony-forming units (CFUs), 100 μl of each of the diluted strains was aliquoted into a 96-well microtiter plate, and then 100 μl of a peptide solution diluted with the MH medium (solution diluted stepwise at 2: 1) was added to each well.

[4] = peptide treatment concentration 1 μg/ml
[5] = peptide treatment concentration 2 μg/ml
[6] = peptide treatment concentration 4 μg/ml
[7] = peptide treatment concentration 6 μg/ml
[8] = peptide treatment concentration 8 μg/ml
[9] = peptide treatment concentration 16 μg/ml
[10] = peptide treatment concentration 32 μg/ml
[11] = peptide treatment concentration 64 μg/ml

Row | Compound | Minimal inhibitory concentration MIC (MDRAB 12036) [µg/mL] | Minimal inhibitory concentration MIC (S. typhimurium) [µg/mL] | Minimal inhibitory concentration MIC (MDREC 1238) [µg/mL] | Erythromycin MIC during combined treatment with peptide (MDRAB 12035 [1]; [4]) [µg/mL] | Linezolid MIC during combined treatment with peptide (MDRAB 12035 [1]; [4]) [µg/mL] | Vancomycin MIC during combined treatment with peptide (MDRAB 12035 [1]; [4]) [µg/mL] | Erythromycin MIC during combined treatment with peptide (MDRAB 12035 [1]; [5]) [µg/mL] | Linezolid MIC during combined treatment with peptide (MDRAB 12035 [1]; [5]) [µg/mL] | Vancomycin MIC during combined treatment with peptide (MDRAB 12035 [1]; [5]) [µg/mL] | Erythromycin MIC during combined treatment with peptide (MDRAB 12035 [1]; [6]) [µg/mL] | Linezolid MIC during combined treatment with peptide (MDRAB 12035 [1]; [6]) [µg/mL] | Vancomycin MIC during combined treatment with peptide (MDRAB 12035 [1]; [6]) [µg/mL] | Erythromycin MIC during combined treatment with peptide (MDRAB 12035 [1]; [7]) [µg/mL] | Linezolid MIC during combined treatment with peptide (MDRAB 12035 [1]; [7]) [µg/mL] | Vancomycin MIC during combined treatment with peptide (MDRAB 12035 [1]; [7]) [µg/mL] | Erythromycin MIC during combined treatment with peptide (MDRAB 12035 [1]; [8]) [µg/mL] | Linezolid MIC during combined treatment with peptide (MDRAB 12035 [1]; [8]) [µg/mL] | Vancomycin MIC during combined treatment with peptide (MDRAB 12035 [1]; [8]) [µg/mL] | Erythromycin MIC during combined treatment with peptide (MDRAB 12035 [1]; [9]) [µg/mL] | Linezolid MIC during combined treatment with peptide (MDRAB 12035 [1]; [9]) [µg/mL] | other results
1 | CC[C@H](C)[C@H](NC(=O)[C@H](CCCCN)NC(=O)[C@H](Cc1c[nH]c2ccccc12)NC(=O)[C@@H](N)CCCNC(=N)N)C(=O)N[C@@H](Cc1ccccc1)C(=O)N[C@@H](CCCCN)C(=O)N[C@@H](CCCCN)C(=O)N[C@H](C(=O)N[C@H](CCCCN)C(=O)N[C@@H](CCCCN)C(=O)N[C@@H](CC(C)C)C(=O)N[C@@H](CC(C)C)C(=O)N[C@@H](Cc1c[nH]cn1)C(=O)N[C@@H](CO)C(=O)N[C@@H](Cc1ccccc1)C(=O)N[C@@H](CCCCN)C(=O)N[C@@H](CCCCN)C(=O)N[C@@H](Cc1ccccc1)C(N)=O)[C@@H](C)CC [PapMA-15, RWK IFK KIk KLL HSF KKF-NH2] (H-RWKIFKKI[dK]KLLHSFKKF-NH2; N-terminus assumed) | 32 (≈ 13.5 µM) | 32 (≈ 13.5 µM) | 32 (≈ 13.5 µM) | 32 | >128 | >128 | 32 | >128 | >128 | 16 | 64 | 128 | 2 | 64 | 32 | 1 | 32 | 32 | 0.25 | 4 | Vancomycin MIC during combined treatment with peptide (MDRAB 12035 [1]; [9]): 16 µg/mL; Erythromycin MIC during combined treatment with peptide (MDRAB 12035 [1]; [10]): 0 µg/mL; Linezolid MIC during combined treatment with peptide (MDRAB 12035 [1]; [10]): 0 µg/mL; Vancomycin MIC during combined treatment with peptide (MDRAB 12035 [1]; [10]): 0 µg/mL; Erythromycin MIC during combined treatment with peptide (MDRAB 12035 [1]; [11]): 0 µg/mL; Linezolid MIC during combined treatment with peptide (MDRAB 12035 [1]; [11]): 0 µg/mL; Vancomycin MIC during combined treatment with peptide (MDRAB 12035 [1]; [11]): 0 µg/mL; Minimal inhibitory concentration MIC (MDRST 8007): 64 µg/mL (≈ 26.9 µM); Minimal inhibitory concentration MIC (MRSA 3114): >128 µg/mL; Minimal inhibitory concentration MIC (MRSA 3126): >128 µg/mL; Minimal inhibitory concentration MIC (A. baumannii): 32 µg/mL (≈ 13.5 µM); Peptide MIC, peptide alone (A. baumannii): 32 µg/mL; Antibacterial activity relative to PapMA-1 (A. baumannii): at least twice as high; Minimal inhibitory concentration MIC (MDRAB 12035 [2]): 32 µg/mL (≈ 13.5 µM); Peptide MIC, peptide alone (MDRAB 12035 [2]): 32 µg/mL; Minimal inhibitory concentration MIC (MDRPA 2003): 32 µg/mL (≈ 13.5 µM); Minimal inhibitory concentration MIC (MDRPA 2002): 32 µg/mL (≈ 13.5 µM); Minimal inhibitory concentration MIC (S. aureus): >128 µg/mL; Antibacterial activity relative to PapMA-1 [3]: twice to four times higher
2 | CC[C@H](C)[C@H](NC(=O)[C@H](CCCCN)NC(=O)[C@H](Cc1c[nH]c2ccccc12)NC(=O)[C@@H](N)CCCNC(=N)N)C(=O)N[C@@H](Cc1ccccc1)C(=O)N[C@@H](CCCCN)C(=O)N[C@@H](CCCCN)C(=O)N[C@H](C(=O)N[C@H](CCCCN)C(=O)N[C@@H](CCCCN)C(=O)N[C@@H](CC(C)C)C(=O)N[C@@H](CC(C)C)C(=O)N[C@@H](Cc1c[nH]cn1)C(=O)N[C@@H](CCC(=O)O)C(=O)N[C@@H](C)C(=O)N[C@@H](CCCCN)C(=O)N[C@@H](CCCCN)C(=O)N[C@@H](Cc1c[nH]c2ccccc12)C(N)=O)[C@@H](C)CC [PapMA-20, RWK IFK KIk KLL HEA KKW-NH2] (H-RWKIFKKI[dK]KLLHEAKKW-NH2; N-terminus assumed) | 16 (≈ 6.72 µM) | 32 (≈ 13.4 µM) | 32 (≈ 13.4 µM) | 32 | >128 | >128 | 16 | 128 | >128 | 8 | 32 | 64 | 4 | 16 | 16 | 0.5 | 4 | 4 | 0 | 0 | Vancomycin MIC during combined treatment with peptide (MDRAB 12035 [1]; [9]): 0 µg/mL; Erythromycin MIC during combined treatment with peptide (MDRAB 12035 [1]; [10]): 0 µg/mL; Linezolid MIC during combined treatment with peptide (MDRAB 12035 [1]; [10]): 0 µg/mL; Vancomycin MIC during combined treatment with peptide (MDRAB 12035 [1]; [10]): 0 µg/mL; Erythromycin MIC during combined treatment with peptide (MDRAB 12035 [1]; [11]): 0 µg/mL; Linezolid MIC during combined treatment with peptide (MDRAB 12035 [1]; [11]): 0 µg/mL; Vancomycin MIC during combined treatment with peptide (MDRAB 12035 [1]; [11]): 0 µg/mL; Minimal inhibitory concentration MIC (MDRST 8007): 64 µg/mL (≈ 26.9 µM); Minimal inhibitory concentration MIC (MRSA 3114): >128 µg/mL; Minimal inhibitory concentration MIC (MRSA 3126): >128 µg/mL; Minimal inhibitory concentration MIC (A. baumannii): 16 µg/mL (≈ 6.72 µM); Peptide MIC, peptide alone (A. baumannii): 16 µg/mL; Antibacterial activity relative to PapMA-1 (A. baumannii): at least twice as high; Minimal inhibitory concentration MIC (MDRAB 12035 [2]): 16 µg/mL (≈ 6.72 µM); Peptide MIC, peptide alone (MDRAB 12035 [2]): 16 µg/mL; Minimal inhibitory concentration MIC (MDRPA 2003): 64 µg/mL (≈ 26.9 µM); Minimal inhibitory concentration MIC (MDRPA 2002): 64 µg/mL (≈ 26.9 µM); Minimal inhibitory concentration MIC (S. aureus): >128 µg/mL; Antibacterial activity relative to PapMA-1 [3]: twice to four times higher
3 | CC[C@H](C)[C@H](NC(=O)[C@H](CCCCN)NC(=O)[C@H](Cc1c[nH]c2ccccc12)NC(=O)[C@@H](N)CCCNC(=N)N)C(=O)N[C@@H](Cc1ccccc1)C(=O)N[C@@H](CCCCN)C(=O)N[C@@H](CCCCN)C(=O)N[C@H](C(=O)N1CCC[C@H]1C(=O)N[C@@H](CCCCN)C(=O)N[C@@H](Cc1ccccc1)C(=O)N[C@@H](CC(C)C)C(=O)N[C@@H](Cc1c[nH]cn1)C(=O)N[C@@H](CCC(=O)O)C(=O)N[C@@H](C)C(=O)N[C@@H](CCCCN)C(=O)N[C@@H](CCCCN)C(=O)N[C@@H](Cc1c[nH]c2ccccc12)C(N)=O)[C@@H](C)CC [PapMA-14, RWK IFK KIP KFL HEA KKW-NH2] (H-RWKIFKKIPKFLHEAKKW-NH2; N-terminus assumed) | 16 (≈ 6.71 µM) | 16 (≈ 6.71 µM) | 16 (≈ 6.71 µM) | 16 | 128 | >128 | 8 | 64 | 64 | 4 | 16 | 16 | 1 | 4 | 4 | 0.5 | 1 | 1 | 0 | 0 | Vancomycin MIC during combined treatment with peptide (MDRAB 12035 [1]; [9]): 0 µg/mL; Erythromycin MIC during combined treatment with peptide (MDRAB 12035 [1]; [10]): 0 µg/mL; Linezolid MIC during combined treatment with peptide (MDRAB 12035 [1]; [10]): 0 µg/mL; Vancomycin MIC during combined treatment with peptide (MDRAB 12035 [1]; [10]): 0 µg/mL; Erythromycin MIC during combined treatment with peptide (MDRAB 12035 [1]; [11]): 0 µg/mL; Linezolid MIC during combined treatment with peptide (MDRAB 12035 [1]; [11]): 0 µg/mL; Vancomycin MIC during combined treatment with peptide (MDRAB 12035 [1]; [11]): 0 µg/mL; Minimal inhibitory concentration MIC (MDRST 8007): 16 µg/mL (≈ 6.71 µM); Minimal inhibitory concentration MIC (MRSA 3114): >128 µg/mL; Minimal inhibitory concentration MIC (MRSA 3126): >128 µg/mL; Minimal inhibitory concentration MIC (A. baumannii): 16 µg/mL (≈ 6.71 µM); Peptide MIC, peptide alone (A. baumannii): 16 µg/mL; Antibacterial activity relative to PapMA-1 (A. baumannii): at least twice as high; Minimal inhibitory concentration MIC (MDRAB 12035 [2]): 16 µg/mL (≈ 6.71 µM); Peptide MIC, peptide alone (MDRAB 12035 [2]): 16 µg/mL; Minimal inhibitory concentration MIC (MDRPA 2003): 64 µg/mL (≈ 26.9 µM); Minimal inhibitory concentration MIC (MDRPA 2002): 64 µg/mL (≈ 26.9 µM); Minimal inhibitory concentration MIC (S. aureus): >128 µg/mL; Antibacterial activity relative to PapMA-1 [3]: twice to four times higher
